The text below walks through data of PubChem BioAssay (NCI).

Test systems include DU-145 prostate; A549 NSCLC; NCI-H23 lung; HT29 colon; HL-60(TB) leukemia; EKVX NSCLC; UACC-257 melanoma; NCI-H522 lung; IGROV1 ovarian; OVCAR-5 ovarian.
Assay in all cases: NCI anticancer screen, dose series, 48 h

SMILES strings stand for the structures. Where “and” joins values, the source holds several entries; their conditions need not be identical. Identical values can stand only once.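 The compound was tested at five concentrations on cells cultured in 96-well plates, with a 48-hour exposure period. GI50 is the concentration that inhibits growth by half. TGI denotes the concentration required for complete inhibition of growth.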

Take `COc1ccc(CN=CN/C(C#N)=C(\N)C#N)cc1OC`: the TGI with DU-145 prostate, in the assay with A549 NSCLC, with NCI-H23 lung, with HT29 colon, with HL-60(TB) leukemia and with EKVX NSCLC was > 100 µM in each case. Also, the TGI in the assay on UACC-257 melanoma, in the assay with NCI-H522 lung, with IGROV1 ovarian and in the assay on OVCAR-5 ovarian was > 100 µM each time.

For `Cc1nnc2c3c(-c4ccccc4)c(-c4ccccc4)oc3nc(N(C)C)n12`, the TGI is > 100 µM in the assay with DU-145 prostate; > 100 µM in the assay with A549 NSCLC; > 100 µM in the assay on NCI-H23 lung; > 100 µM in the assay on HT29 colon; 46.9 µM in the assay with HL-60(TB) leukemia; > 100 µM in the assay on EKVX NSCLC. The TGI with UACC-257 melanoma, in the assay with NCI-H522 lung, in the assay with IGROV1 ovarian and with OVCAR-5 ovarian was > 100 µM each time.

With `C=C[C@H]1CN2CC[C@H]1C[C@@H]2[C@@H](O)c1ccnc2ccccc12`, the TGI in the assay on DU-145 prostate, in the assay on A549 NSCLC, with NCI-H23 lung, in the assay on HT29 colon, with HL-60(TB) leukemia and in the assay on EKVX NSCLC was > 100 µM each time. Further, the TGI in the assay with UACC-257 melanoma is > 100 µM; in the assay with NCI-H522 lung, > 100 µM; in the assay on IGROV1 ovarian, 75.9 µM; in the assay with OVCAR-5 ovarian it was > 100 µM.

With `CC1=Nn2c(nc3sc4c(c3c2=O)CCCC4)SC1`, the TGI in the assay with DU-145 prostate is > 100 µM; in the assay on A549 NSCLC, > 100 µM; with NCI-H23 lung, > 100 µM; in the assay with HT29 colon it was > 100 µM; in the assay with HL-60(TB) leukemia it was > 87.4 µM; in the assay with EKVX NSCLC, > 100 µM. Moreover, the TGI in the assay with UACC-257 melanoma, with NCI-H522 lung, with IGROV1 ovarian and in the assay on OVCAR-5 ovarian was > 100 µM each time.

On to `COC1C(O)=C2C(=O)OC(C)(O)/C=C/C=C\C=C/C=C/C(c3ccccc3)NC(=O)/C=C/C=C/C=C/C=C/C2(C)C1O` (configuration not stated), for which the TGI in the assay with DU-145 prostate is 0.0769 µM and 0.123 µM; in the assay with A549 NSCLC it was 0.0253 µM; in the assay on NCI-H23 lung it was 0.119 µM and 0.129 µM; with HT29 colon, 0.0161 µM and 0.0687 µM; with EKVX NSCLC, 0.122 µM and 0.237 µM; in the assay on UACC-257 melanoma, 0.17 µM and 0.31 µM. Further, the TGI in the assay on NCI-H522 lung is 0.038 µM and 0.11 µM; in the assay on IGROV1 ovarian it was 0.15 µM and 0.168 µM; in the assay on OVCAR-5 ovarian, 0.566 µM and 0.224 µM. Further, the GI50 is 0.113 µM in the assay on HL-60(TB) leukemia; 0.0624 µM in the assay with EKVX NSCLC; 0.0838 µM with UACC-257 melanoma; 0.0303 µM in the assay with IGROV1 ovarian; 0.0649 µM in the assay on OVCAR-5 ovarian.

For `CN(C)c1ccc(C(c2ccc(N(C)C)cc2)c2ccc([N+](=O)[O-])cc2)cc1`, the TGI with DU-145 prostate, with A549 NSCLC, in the assay with NCI-H23 lung, in the assay on HT29 colon, with HL-60(TB) leukemia and with EKVX NSCLC was > 100 µM throughout. In addition, the TGI in the assay with UACC-257 melanoma, in the assay with NCI-H522 lung, in the assay with IGROV1 ovarian and in the assay with OVCAR-5 ovarian was > 100 µM in each case.

For `O=C(O)C(Cc1cccs1)C(=O)O`, the TGI in the assay with DU-145 prostate, in the assay on A549 NSCLC, in the assay with NCI-H23 lung, in the assay on HT29 colon, in the assay with HL-60(TB) leukemia and with EKVX NSCLC was > 100 µM throughout. For the same compound, the TGI in the assay on UACC-257 melanoma, with NCI-H522 lung, in the assay on IGROV1 ovarian and in the assay on OVCAR-5 ovarian was > 100 µM each time.

As to `O=[N+]([O-])C(=C(NCc1ccccc1)NCc1ccccc1)C(Cl)=C(Cl)Cl`, the TGI in the assay on DU-145 prostate is > 100 µM; in the assay on A549 NSCLC, > 100 µM; in the assay on NCI-H23 lung, 96.9 µM; with HT29 colon, > 100 µM; in the assay on HL-60(TB) leukemia, 45.9 µM; in the assay with EKVX NSCLC it was > 100 µM. The TGI in the assay on UACC-257 melanoma is 82.4 µM; in the assay with NCI-H522 lung it was 79.1 µM; with IGROV1 ovarian it was > 100 µM.

As to `Cc1nc2ccccc2n1CCc1nc2ccccc2s1`, the TGI is > 100 µM in the assay with DU-145 prostate; > 100 µM with A549 NSCLC; > 100 µM in the assay with NCI-H23 lung; > 100 µM in the assay on HT29 colon; 60.8 µM with HL-60(TB) leukemia; > 100 µM in the assay on EKVX NSCLC. Further, the TGI in the assay on UACC-257 melanoma, in the assay with NCI-H522 lung, in the assay on IGROV1 ovarian and with OVCAR-5 ovarian was > 100 µM throughout.

As for `CC1CC[C@]2(C(=O)O)CCC3(C)C(=C2[C@H]1C)C=CC1[C@@]2(C)CC[C@H](O)C(C)(C)C2CC[C@]13C` (some centres not stated), the TGI is 42.4 µM with DU-145 prostate; 62.6 µM in the assay on A549 NSCLC; > 100 µM with NCI-H23 lung; > 100 µM in the assay on HT29 colon; > 100 µM in the assay on HL-60(TB) leukemia; > 100 µM in the assay with EKVX NSCLC. In addition, the TGI in the assay with UACC-257 melanoma was > 100 µM; with NCI-H522 lung, > 100 µM; in the assay with IGROV1 ovarian, 98.2 µM; in the assay with OVCAR-5 ovarian it was > 100 µM.

Regarding `CCN(CC)CCNc1ccc(N=Nc2ccc(S(N)(=O)=O)cc2)c2ccccc12`, the TGI in the assay on DU-145 prostate was determined as 28.2 µM; in the assay with A549 NSCLC it was 40.5 µM; in the assay with NCI-H23 lung it was 50.7 µM; in the assay with HT29 colon it was 34.9 µM; with HL-60(TB) leukemia it was 36.9 µM; with EKVX NSCLC, 41.2 µM. Besides, the TGI in the assay on UACC-257 melanoma came to 31.4 µM; with NCI-H522 lung, 32 µM; with IGROV1 ovarian, 28.8 µM; in the assay with OVCAR-5 ovarian, 88.1 µM.

Regarding `COc1ccc2nc3c([N+](=O)[O-])ccc4c3c(c2c1)NCCN4C`, the TGI was 6.92 µM in the assay on DU-145 prostate; 2.57 µM in the assay with A549 NSCLC; 6.39 µM with NCI-H23 lung; 12.4 µM with HT29 colon; > 100 µM in the assay on HL-60(TB) leukemia; 6.61 µM with EKVX NSCLC. The TGI with UACC-257 melanoma was 10.1 µM; in the assay on NCI-H522 lung it was 3.31 µM; in the assay on IGROV1 ovarian, 4.52 µM; in the assay with OVCAR-5 ovarian it was 23 µM.

In the case of `CN(C)CCOc1ccc(-c2c(Oc3ccc(Cl)cc3)c(=O)oc3ccccc23)cc1`, the TGI in the assay with DU-145 prostate is 45.5 µM; with A549 NSCLC it was > 32.5 µM; with NCI-H23 lung, 34.8 µM; with HT29 colon, > 38.7 µM; in the assay with HL-60(TB) leukemia it was > 100 µM; with EKVX NSCLC, 37.6 µM. Also, the TGI came out at 20.9 µM with NCI-H522 lung, 19.2 µM with IGROV1 ovarian and 35.7 µM in the assay with OVCAR-5 ovarian.
